Measured values as given in patent US11229623B2 (GlaxoSmithKline Intellectual Property (No.2) Limited, priority 2016, dated 2022).
Where two headings read alike, the source gives them in different places.

Molecular target: T1, human TRPV4 (Homo sapiens, UniProt Q9HBA0)
T1 construct: expressed in transfected cells; host or cells: BHK/AC9 cells transduced with BacMam virus
Assay: FLIPR assay for hTRPV4 expressed in BHK cells: inhibition of Agonist Compound-induced calcium signal
Format: cell-based
In short: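 BHK/AC9 cells transduced with BacMam human TRPV4 (MOI 78), plated 15,000 per well and cultured 24 h at 37° C. Loaded with 2 μM Fluo-4 AM plus 500 μM Brilliant Black in HBSS for 1-1.5 h at room temperature in the dark; intracellular calcium signal read by FLIPR fluorescence.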

[1] = hTRPV4 in BHK/AC9 cells, FLIPR calcium signal, agonist at EC80, reported as range class, read-out: IC50

T1 sequence (Q9HBA0 whole entry): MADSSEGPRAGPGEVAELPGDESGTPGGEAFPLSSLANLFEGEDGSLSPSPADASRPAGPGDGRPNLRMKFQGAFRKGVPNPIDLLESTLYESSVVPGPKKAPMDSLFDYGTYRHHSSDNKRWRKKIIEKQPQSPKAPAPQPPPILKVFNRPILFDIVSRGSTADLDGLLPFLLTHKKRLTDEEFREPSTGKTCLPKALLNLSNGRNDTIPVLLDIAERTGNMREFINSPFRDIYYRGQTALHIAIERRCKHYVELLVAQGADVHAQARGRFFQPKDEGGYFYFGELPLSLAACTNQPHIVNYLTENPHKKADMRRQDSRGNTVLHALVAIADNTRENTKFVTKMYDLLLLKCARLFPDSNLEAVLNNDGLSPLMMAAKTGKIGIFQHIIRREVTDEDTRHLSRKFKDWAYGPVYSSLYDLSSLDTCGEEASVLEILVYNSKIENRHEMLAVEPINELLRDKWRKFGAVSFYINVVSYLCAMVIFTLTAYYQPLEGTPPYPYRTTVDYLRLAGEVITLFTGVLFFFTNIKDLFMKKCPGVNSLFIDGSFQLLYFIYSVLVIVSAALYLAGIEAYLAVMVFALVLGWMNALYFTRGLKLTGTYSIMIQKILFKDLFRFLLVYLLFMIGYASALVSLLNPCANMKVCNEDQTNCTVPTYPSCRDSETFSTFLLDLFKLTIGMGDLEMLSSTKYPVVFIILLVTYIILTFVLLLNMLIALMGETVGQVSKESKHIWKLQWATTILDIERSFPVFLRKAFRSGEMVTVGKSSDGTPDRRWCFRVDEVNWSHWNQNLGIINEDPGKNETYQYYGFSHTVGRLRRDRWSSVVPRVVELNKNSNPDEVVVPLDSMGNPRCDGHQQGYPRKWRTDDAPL

Row | SMILES | IC50 [1] [nM] | further results
1 | N#Cc1cc(OCC(F)(F)F)c(O[C@H]2CN(S(=O)(=O)c3ccccc3)C[C@@]2(O)CO)cc1F [Example 176, 2-fluoro-4-(((3S,4R)-4-hydroxy-4-(hydroxymethyl)-1-(phenylsulfonyl)pyrrolidin-3-yl)oxy)-5-(2,2,2-trifluoroethoxy) benzonitrile] | 10 to 100 | –
2 | N#Cc1cc(OCC(F)(F)F)c(O[C@H]2CN(S(=O)(=O)c3ccc(Cl)cc3Cl)C[C@@]2(O)CO)cc1F [Example 177, 4-(((3S,4R)-1-((2,4-dichlorophenyl)sulfonyl)-4-hydroxy-4-(hydroxymethyl)pyrrolidin-3-yl)oxy)-2-fluoro-5-(2,2,2-trifluoroethoxy) benzonitrile] | 0.1 to 10 | –
3 | N#Cc1ccc(S(=O)(=O)N2C[C@H](Oc3cc(F)c(C#N)cc3OCC(F)(F)F)[C@](O)(CO)C2)cc1 [Example 178, 4-(((3S,4R)-1-((4-cyanophenyl)sulfonyl)-4-hydroxy-4-(hydroxymethyl)pyrrolidin-3-yl)oxy)-2-fluoro-5-(2,2,2-trifluoroethoxy) benzonitrile] | 0.1 to 10 | –
4 | CC(C)COc1cc(C#N)c(F)cc1O[C@H]1CN(S(=O)(=O)c2ccccc2C#N)C[C@@]1(O)CO [Example 179, 4-(((3S,4R)-1-((2-cyanophenyl)sulfonyl)-4-hydroxy-4-(hydroxymethyl)pyrrolidin-3-yl)oxy)-2-fluoro-5-isobutoxybenzonitrile] | 0.1 to 10 | –
5 | CC(C)COc1cc(C#N)c(F)cc1O[C@H]1CN(S(=O)(=O)c2ccc(C#N)cc2)C[C@@]1(O)CO [Example 180, 4-(((3S,4R)-1-((4-cyanophenyl)sulfonyl)-4-hydroxy-4-(hydroxymethyl)pyrrolidin-3-yl)oxy)-2-fluoro-5-isobutoxybenzonitrile] | 0.1 to 10 | –
6 | CC(C)COc1cc(C#N)c(F)cc1O[C@H]1CN(S(=O)(=O)c2ccc(C#N)nc2)C[C@@]1(O)CO [Example 181, 5-(((3R,4S)-4-(4-cyano-5-fluoro-2-isobutoxyphenoxy)-3-hydroxy-3-(hydroxymethyl)pyrrolidin-1-yl)sulfonyl) picolinonitrile] | 0.1 to 10 | –
7 | CC(C)COc1cc(C#N)c(F)cc1O[C@H]1CN(S(=O)(=O)c2ccc(C(F)(F)F)cc2)C[C@@]1(O)CO [Example 182, 2-fluoro-4-(((3S,4R)-4-hydroxy-4-(hydroxymethyl)-1-((4-(trifluoromethyl)phenyl)sulfonyl)pyrrolidin-3-yl)oxy)-5-isobutoxybenzonitrile] | 10 to 100 | –
8 | CC(C)COc1cc(C#N)c(F)cc1O[C@H]1CN(S(=O)(=O)c2ccc(C(F)(F)F)nc2)C[C@@]1(O)CO [Example 183, 2-fluoro-4-(((3S,4R)-4-hydroxy-4-(hydroxymethyl)-1-((6-(trifluoromethyl)pyridin-3-yl)sulfonyl)pyrrolidin-3-yl)oxy)-5-isobutoxybenzonitrile] | 10 to 100 | –
9 | N#Cc1ccc(O[C@H]2CN(S(=O)(=O)c3ccc(C#N)nc3)C[C@@]2(O)CO)c(OCC(F)(F)F)c1 [Example 184, 5-(((3R,4S)-4-(4-cyano-2-(2,2,2-trifluoroethoxy)phenoxy)-3-hydroxy-3-(hydroxymethyl)pyrrolidin-1-yl)sulfonyl) picolinonitrile] | 10 to 100 | –
10 | N#Cc1ccc(O[C@H]2CN(S(=O)(=O)c3ccccc3C#N)C[C@@]2(O)CO)c(OCC(F)(F)F)c1 [Example 185, 4-(((3S,4R)-1-((2-cyanophenyl)sulfonyl)-4-hydroxy-4-(hydroxymethyl)pyrrolidin-3-yl)oxy)-3-(2,2,2-trifluoroethoxy) benzonitrile] | 0.1 to 10 | –
11 | N#Cc1ccc(O[C@H]2CN(S(=O)(=O)c3ccc(Cl)cn3)C[C@@]2(O)CO)c(OCC(F)(F)F)c1 [Example 186, 4-(((3S,4R)-1-((5-chloropyridin-2-yl)sulfonyl)-4-hydroxy-4-(hydroxymethyl)pyrrolidin-3-yl)oxy)-3-(2,2,2-trifluoroethoxy) benzonitrile] | 10 to 100 | –
12 | N#Cc1cc(OCC(F)(F)F)c(O[C@H]2CN(S(=O)(=O)c3ccc(Cl)cn3)C[C@@]2(O)CO)cc1F [Example 187, 4-(((3S,4R)-1-((5-chloropyridin-2-yl)sulfonyl)-4-hydroxy-4-(hydroxymethyl)pyrrolidin-3-yl)oxy)-2-fluoro-5-(2,2,2-trifluoroethoxy) benzonitrile] | 0.1 to 10 | –
13 | Cc1ccc(S(=O)(=O)N2C[C@H](Oc3cc(F)c(C#N)cc3OCC(C)C)[C@](O)(CO)C2)nn1 [Example 188, 2-fluoro-4-(((3S,4R)-4-hydroxy-4-(hydroxymethyl)-1-((6-methylpyridazin-3-yl)sulfonyl)pyrrolidin-3-yl)oxy)-5-isobutoxybenzonitrile] | 10 to 100 | –
14 | CCC[C@H](O)[C@]1(O)CN(S(=O)(=O)c2ccc(Cl)cn2)C[C@@H]1Oc1ccc(C#N)c(F)c1 [Example 189, 4-(((3S,4R)-1-((5-chloropyridin-2-yl)sulfonyl)-4-hydroxy-4-((S)-1-hydroxybutyl)pyrrolidin-3-yl)oxy)-2-fluorobenzonitrile] | 10 to 100 | –
15 | C[C@H](O)[C@]1(O)CN(S(=O)(=O)c2ccc(C(F)(F)F)cc2C#N)C[C@@H]1Oc1ccc(C#N)c(F)c1 [Example 190, 4-(((3S,4R)-1-((2-cyano-4-(trifluoromethyl)phenyl)sulfonyl)-4-hydroxy-4-(1-hydroxyethyl)pyrrolidin-3-yl)oxy)-2-fluorobenzonitrile] | 0.1 to 10 | –
16 | C[C@H](O)[C@]1(O)CN(S(=O)(=O)c2ccc(Cl)cn2)C[C@@H]1Oc1ccc(C#N)c(F)c1 [Example 191] | – | IC50: 100 to 1000 nM
17 | CC(C)C[C@H](O)[C@]1(O)CN(S(=O)(=O)c2ccc(Cl)cn2)C[C@@H]1Oc1ccc(C#N)c(F)c1 [Example 192, 4-(((3S,4R)-1-((5-chloropyridin-2-yl)sulfonyl)-4-hydroxy-4-((S)-1-hydroxy-3-methylbutyl)pyrrolidin-3-yl)oxy)-2-fluorobenzonitrile] | 10 to 100 | –
18 | C[C@@H](O)[C@]1(O)CN(S(=O)(=O)c2ccc(Cl)cn2)C[C@@H]1Oc1ccc(C#N)c(F)c1 [Example 195] | – | IC50: 0.1 to 10 nM

Further lines, with some results ahead:

Row | IC50 [1] [nM] | SMILES | further results
19 | 0.1 to 10 | C[C@@H](O)[C@]1(O)CN(S(=O)(=O)c2ccc(C(F)(F)F)cc2C#N)C[C@@H]1Oc1ccc(C#N)c(F)c1 [Example 193, 4-(((3S,4R)-1-((2-cyano-4-(trifluoromethyl)phenyl)sulfonyl)-4-hydroxy-4-((R)-1-hydroxyethyl)pyrrolidin-3-yl)oxy)-2-fluorobenzonitrile] | –
20 | 10 to 100 | C[C@H](O)[C@@]1(O)CN(S(=O)(=O)c2ccc(C(F)(F)F)cc2C#N)C[C@@H]1Oc1ccc(C#N)c(F)c1 [Example 194, 4-(((3S,4S)-1-((2-cyano-4-(trifluoromethyl)phenyl)sulfonyl)-4-hydroxy-4-((S)-1-hydroxyethyl)pyrrolidin-3-yl)oxy)-2-fluorobenzonitrile] | IC50 (hTRPV4 FLIPR assay, average in at least one set of experimental runs, read-out: average IC50): 40 nM
21 | 0.1 to 10 | CC[C@@H](O)[C@]1(O)CN(S(=O)(=O)c2ccc(Cl)cn2)C[C@@H]1Oc1ccc(C#N)c(F)c1 [Example 196, 4-(((3S,4R)-1-((5-chloropyridin-2-yl)sulfonyl)-4-hydroxy-4-((R)-1-hydroxypropyl)pyrrolidin-3-yl)oxy)-2-fluorobenzonitrile] | –
22 | 0.1 to 10 | CC(C)C[C@@H](O)[C@]1(O)CN(S(=O)(=O)c2ccc(Cl)cn2)C[C@@H]1Oc1ccc(C#N)c(F)c1 [Example 197, 4-(((3S,4R)-1-((5-chloropyridin-2-yl)sulfonyl)-4-hydroxy-4-((R)-1-hydroxy-3-methylbutyl)pyrrolidin-3-yl)oxy)-2-fluorobenzonitrile] | –
23 | 0.1 to 10 | CCC[C@@H](O)[C@]1(O)CN(S(=O)(=O)c2ccc(Cl)cn2)C[C@@H]1Oc1ccc(C#N)c(F)c1 [Example 198, 4-(((3S,4R)-1-((5-chloropyridin-2-yl)sulfonyl)-4-hydroxy-4-((R)-1-hydroxybutyl)pyrrolidin-3-yl)oxy)-2-fluorobenzonitrile] | –
24 | 10 to 100 | COc1ccc(S(=O)(=O)N2C[C@H](Oc3ccc(C#N)c(F)c3)[C@](O)([C@H](C)O)C2)c(C#N)c1 [Example 199, 4-(((3S,4R)-1-((2-cyano-4-methoxyphenyl)sulfonyl)-4-hydroxy-4-((S)-1-hydroxyethyl)pyrrolidin-3-yl)oxy)-2-fluorobenzonitrile] | –
25 | 10 to 100 | C[C@H](O)[C@]1(O)CN(S(=O)(=O)c2ccccc2C#N)C[C@@H]1Oc1ccc(C#N)c(F)c1 [Example 200, 4-(((3S,4R)-1-((2-cyanophenyl)sulfonyl)-4-hydroxy-4-((S)-1-hydroxyethyl)pyrrolidin-3-yl)oxy)-2-fluorobenzonitrile] | –
26 | 0.1 to 10 | C[C@H](O)[C@]1(O)CN(S(=O)(=O)c2ccc(F)cc2C#N)C[C@@H]1Oc1ccc(C#N)c(F)c1 [Example 201, 4-(((3S,4R)-1-((2-cyano-4-fluorophenyl)sulfonyl)-4-hydroxy-4-((S)-1-hydroxyethyl)pyrrolidin-3-yl)oxy)-2-fluorobenzonitrile] | –
27 | 0.1 to 10 | C[C@H](O)[C@]1(O)CN(S(=O)(=O)c2ccc(Cl)cc2C#N)C[C@@H]1Oc1ccc(C#N)c(F)c1 [Example 202, 4-(((3S,4R)-1-((4-chloro-2-cyanophenyl)sulfonyl)-4-hydroxy-4-((S)-1-hydroxyethyl)pyrrolidin-3-yl)oxy)-2-fluorobenzonitrile] | –
28 | 10 to 100 | C[C@H](O)[C@]1(O)CN(S(=O)(=O)c2cccnc2C#N)C[C@@H]1Oc1ccc(C#N)c(F)c1 [Example 203, 3-(((3R,4S)-4-(4-cyano-3-fluorophenoxy)-3-hydroxy-3-((S)-1-hydroxyethyl)pyrrolidin-1-yl)sulfonyl) picolinonitrile] | –
29 | 0.1 to 10 | C[C@H](O)[C@]1(O)CN(S(=O)(=O)c2ccc(Cl)cc2Cl)C[C@@H]1Oc1ccc(C#N)c(F)c1 [Example 204, 4-(((3S,4R)-1-((2,4-dichlorophenyl)sulfonyl)-4-hydroxy-4-((S)-1-hydroxyethyl)pyrrolidin-3-yl)oxy)-2-fluorobenzonitrile] | –
